Experimental findings from patent publication US20180155344A1, “TRICYCLIC PIPERIDINE COMPOUNDS” (ACTELION PHARMACEUTICALS LTD, priority 2015, published 2018) are described below.

Structures can show the parent of a compound that is named as a salt.

The experiment concerns the target T1, human TPH1 (Homo sapiens, UniProt P17752).
T1 sequence (P17752 1-444): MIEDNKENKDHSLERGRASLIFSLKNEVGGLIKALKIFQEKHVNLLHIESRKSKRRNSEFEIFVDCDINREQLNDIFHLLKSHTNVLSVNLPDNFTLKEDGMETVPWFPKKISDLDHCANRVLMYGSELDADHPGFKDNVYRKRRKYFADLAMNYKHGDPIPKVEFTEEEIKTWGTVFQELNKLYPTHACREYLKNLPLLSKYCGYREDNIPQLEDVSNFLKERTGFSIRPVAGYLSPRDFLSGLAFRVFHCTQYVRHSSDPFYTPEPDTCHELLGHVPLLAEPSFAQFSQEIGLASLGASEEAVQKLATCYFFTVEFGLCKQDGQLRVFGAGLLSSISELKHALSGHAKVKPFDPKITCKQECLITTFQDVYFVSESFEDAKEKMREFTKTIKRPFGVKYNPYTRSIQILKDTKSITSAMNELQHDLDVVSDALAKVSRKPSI
The experiment in a line: biochemical. The procedure, abridged: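 Inhibition is derived from 5-hydroxy-L-tryptophan fluorescence (540 nm emission, 300 nm excitation) after perchloric acid stop, relative to DMSO vehicle. Recombinant full-length human enzyme (40-80 nM) reacts with 40 μM tryptophan plus 100 μM methyltetrahydropterin, pH 7.6 Tris/DTT/catalase, 15° C, 60 min.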
As usually defined, the IC50 is the concentration needed to halve the response being measured. High values mean weaker potency in that assay, low ones greater potency in that assay. `COc1ccc(C2c3c(nc4cc(C)ccn34)CCN2C(=O)COc2ccc3ccccc3c2)cc1OC` (stereo not shown) [Example 4.1.2, 1-(1-(3,4-dimethoxyphenyl)-7-methyl-3,4-dihydroimidazo[1,2-a:5,4-c′]dipyridin-2(1H)-yl)-2-(naphthalen-2-yloxy)ethan-1-one]: the IC50 is 0.01 µM. In other words, the double-digit nanomolar range.

The molecule `COc1ccc(C2c3c(nc4cc(Cl)ccn34)CCN2C(=O)COc2ccc(CN3CCOCC3)cc2Cl)cc1OC` (stereo not shown) [Example 2.1.2, 1-(7-chloro-1-(3,4-dimethoxyphenyl)-3,4-dihydroimidazo[1,2-a:5,4-c′]dipyridin-2(1H)-yl)-2-(2-chloro-4-(morpholinomethyl)phenoxy)ethan-1-one] registered an IC50 of 0.066 µM. This IC50 lies about 6.6-fold higher than the previous one.

As to `CCc1cc2nc3c(n2cc1C)C(c1ccc(OC)c(OC)c1)N(C(=O)COc1ccc2ccccc2c1CC)CC3` (stereo not shown) [Example 6.1.3, 1-(1-(3,4-dimethoxyphenyl)-7-ethyl-8-methyl-3,4-dihydroimidazo[1,2-a:5,4-c′]dipyridin-2(1H)-yl)-2-((1-ethylnaphthalen-2-yl)oxy)ethan-1-one], the IC50 stood at 0.009 µM.

As for `COc1ccc(C2c3c(nc4cc(Cl)ccn34)CCN2C(=O)COc2ccc3ccccc3c2)cc1OC` (stereo not shown) [Example 2.1.1, 1-(7-chloro-1-(3,4-dimethoxyphenyl)-3,4-dihydroimidazo[1,2-a:5,4-c′]dipyridin-2(1H)-yl)-2-(naphthalen-2-yloxy)ethan-1-one hydrochloride], half-maximal inhibition (IC50) required 0.039 µM. Against the preceding molecule, the IC50 is about 4.3-fold higher.

`O=C(COc1ccc2ccccc2c1)N1CCc2nc3cc(C(F)(F)F)ccn3c2C1c1ncccc1F` (stereo not shown) [Example 3.21.1, 1-(1-(3-fluoropyridin-2-yl)-7-(trifluoromethyl)-3,4-dihydroimidazo[1,2-a:5,4-c′]dipyridin-2(1H)-yl)-2-(naphthalen-2-yloxy)ethan-1-one]: inhibition was half-maximal at 0.069 µM (IC50).

As to `COc1ccc(C2c3c(nc4cc(Cl)ccn34)CCN2C(=O)COc2ccc(CN3CCOCC3)nc2Cl)c(F)c1` (stereo not shown) [Example 2.3.2, 1-(7-chloro-1-(2-fluoro-4-methoxyphenyl)-3,4-dihydroimidazo[1,2-a:5,4-c′]dipyridin-2(1H)-yl)-2-((2-chloro-6-(morpholinomethyl)pyridin-3-yl)oxy)ethan-1-one], the IC50 is 0.059 µM.

Molecule `O=C(COc1ccc2ccccc2c1)N1CCc2nc3cc(C(F)(F)F)ccn3c2C1c1cc(-c2ccccc2)on1` (stereo not shown) [Example 3.46.2, 2-(naphthalen-2-yloxy)-1-(1-(5-phenylisoxazol-3-yl)-7-(trifluoromethyl)-3,4-dihydroimidazo[1,2-a:5,4-c′]dipyridin-2(1H)-yl)ethan-1-one] showed an IC50 of 0.206 µM.

Turning to `Cc1ccc(C2c3c(nc4cc(C(F)(F)F)ccn34)CCN2C(=O)COc2ccc3ccccc3c2)cc1C` (stereo not shown) [Example 3.10.1, 1-(1-(3,4-dimethylphenyl)-7-(trifluoromethyl)-3,4-dihydroimidazo[1,2-a:5,4-c′]dipyridin-2(1H)-yl)-2-(naphthalen-2-yloxy)ethan-1-one], the midpoint of inhibition, the IC50, lay at 0.033 µM.

`CCc1cc(Cl)ccc1OCC(=O)N1CCc2nc3cc(C(F)(F)F)ccn3c2C1c1ccc(OC)c(OC)c1` (stereo not shown) [Example 3.1.29, 2-(4-chloro-2-ethylphenoxy)-1-(1-(3,4-dimethoxyphenyl)-7-(trifluoromethyl)-3,4-dihydroimidazo[1,2-a:5,4-c′]dipyridin-2(1H)-yl)ethan-1-one] had an IC50 of 0.064 µM.

With `CC(C)(O)c1ccc(C2c3c(nc4ccccn34)CCN2C(=O)COc2ccc(NS(C)(=O)=O)nc2Cl)c(F)c1` (stereo not shown) [Example 1.16.2, N-(6-chloro-5-(2-(1-(2-fluoro-4-(2-hydroxypropan-2-yl)phenyl)-3,4-dihydroimidazo[1,2-a:5,4-c′]dipyridin-2(1H)-yl)-2-oxoethoxy)pyridin-2-yl)methanesulfonamide], half-maximal inhibition (IC50) required 0.546 µM.

Turning to `CCc1cc(C)c(C(=O)NC)cc1OCC(=O)N1CCc2nc3ccccn3c2C1c1ccc(OC)c(OC)c1` (stereo not shown) [Example 1.1.12, 5-(2-(1-(3,4-dimethoxyphenyl)-3,4-dihydroimidazo[1,2-a:5,4-c′]dipyridin-2(1H)-yl)-2-oxoethoxy)-4-ethyl-N,2-dimethylbenzamide], inhibition was half-maximal at 0.141 µM (IC50). Against the preceding molecule, the IC50 is about 3.9-fold lower.

For the molecule `COc1ccc(C2c3c(nc4cc(Cl)ccn34)CCN2C(=O)COc2ccc3ccccc3c2)cc1O` (stereo not shown) [Example 2.8.1, 1-(7-chloro-1-(3-hydroxy-4-methoxyphenyl)-3,4-dihydroimidazo[1,2-a:5,4-c′]dipyridin-2(1H)-yl)-2-(naphthalen-2-yloxy)ethan-1-one], the IC50 stood at 0.219 µM. Compared with the last molecule, the IC50 is about 1.6-fold higher.

Turning to `O=C(COc1ccc2ccccc2c1)N1CCc2nc3cc(C(F)(F)F)ccn3c2C1c1ccnc(Cl)c1` (stereo not shown) [Example 3.56.1, 1-(1-(2-chloropyridin-4-yl)-7-(trifluoromethyl)-3,4-dihydroimidazo[1,2-a:5,4-c′]dipyridin-2(1H)-yl)-2-(naphthalen-2-yloxy)ethan-1-one], the IC50 was 0.195 µM.

On to `COc1ccc(C2c3c(nc4cc(C(F)(F)F)ccn34)CCN2C(=O)COc2ccc3ncccc3c2)cc1OC` (stereo not shown) [Example 3.1.19], for which the IC50 was 0.117 µM.

The molecule `COc1ncc(C2c3c(nc4cc(C(F)(F)F)ccn34)CCN2C(=O)COc2ccc3ccccc3c2)cn1` (stereo not shown) [Example 3.55.1, 1-(1-(2-methoxypyrimidin-5-yl)-7-(trifluoromethyl)-3,4-dihydroimidazo[1,2-a:5,4-c′]dipyridin-2(1H)-yl)-2-(naphthalen-2-yloxy)ethan-1-one] came in with an IC50 of 0.067 µM.

Molecule `COc1ccc(C2c3c(nc4cc(Cl)ccn34)CCN2C(=O)COc2ccc(CN3CCOCC3)nc2Cl)cc1OC` (stereo not shown) [Example 2.1.5, 1-(7-chloro-1-(3,4-dimethoxyphenyl)-3,4-dihydroimidazo[1,2-a:5,4-c′]dipyridin-2(1H)-yl)-2-((2-chloro-6-(morpholinomethyl)pyridin-3-yl)oxy)ethan-1-one] yielded an IC50 of 0.316 µM. Compared with the last molecule, the IC50 is about 4.7-fold higher.

As for `CS(=O)(=O)Nc1ccc(OCC(=O)N2CCc3nc4ccccn4c3C2c2ccc(Cl)cc2F)c(Cl)n1` (stereo not shown) [Example 1.4.7, N-(6-chloro-5-(2-(1-(4-chloro-2-fluorophenyl)-3,4-dihydroimidazo[1,2-a:5,4-c′]dipyridin-2(1H)-yl)-2-oxoethoxy)pyridin-2-yl)methanesulfonamide], the midpoint of inhibition, the IC50, lay at 0.01 µM.

For `O=C(COc1ccc(CN2CCOCC2)cc1Cl)N1CCc2nc3cc(C(F)(F)F)ccn3c2C1c1ccc(OC(F)(F)F)cc1` (stereo not shown) [Example 3.27.1, 2-(2-chloro-4-(morpholinomethyl)phenoxy)-1-(1-(4-(trifluoromethoxy)phenyl)-7-(trifluoromethyl)-3,4-dihydroimidazo[1,2-a:5,4-c′]dipyridin-2(1H)-yl)ethan-1-one], the IC50 was 0.135 µM. This IC50 is about 14-fold higher than that of the molecule before.

Regarding `CCc1cc(C)c(C(N)=O)cc1OCC(=O)N1CCc2nc3ccccn3c2C1c1ccc(OC)c(OC)c1` (stereo not shown) [Example 1.1.11, 5-(2-(1-(3,4-dimethoxyphenyl)-3,4-dihydroimidazo[1,2-a:5,4-c′]dipyridin-2(1H)-yl)-2-oxoethoxy)-4-ethyl-2-methylbenzamide], the IC50 worked out at 0.248 µM.

In turn, `COC(=O)COc1cc(C2c3c(nc4cc(Cl)ccn34)CCN2C(=O)COc2ccc(CN3CCOCC3)cc2Cl)ccc1OC` (stereo not shown) [Example 2.14.1, Methyl 2-(5-(7-chloro-2-(2-(2-chloro-4-(morpholinomethyl)phenoxy)acetyl)-1,2,3,4-tetrahydroimidazo[1,2-a:5,4-c′]dipyridin-1-yl)-2-methoxyphenoxy)acetate] had an IC50 of 0.088 µM.

`COc1ccc(C2c3c(nc4cc(Cl)ccn34)CCN2C(=O)COc2ccc(CN3CCOCC3)cc2Cl)cc1OC[C@H](O)CO` (stereo partly drawn) [Example 2.10.2, 1-(7-chloro-1-(3-((R)-2,3-dihydroxypropoxy)-4-methoxyphenyl)-3,4-dihydroimidazo[1,2-a:5,4-c′]dipyridin-2(1H)-yl)-2-(2-chloro-4-(morpholinomethyl)phenoxy)ethan-1-one] returned a concentration for half-maximal inhibition (IC50) of 0.019 µM.

In turn, `COc1cccc(C2c3c(nc4cc(C(F)(F)F)ccn34)CCN2C(=O)COc2ccc3ccccc3c2)c1` (stereo not shown) [Example 3.32.1, 1-(1-(3-methoxyphenyl)-7-(trifluoromethyl)-3,4-dihydroimidazo[1,2-a:5,4-c′]dipyridin-2(1H)-yl)-2-(naphthalen-2-yloxy)ethan-1-one] gave an IC50 of 0.228 µM.

On to `COc1ccc(C2c3c(nc4ccccn34)CCN2C(=O)COc2ccc(C(=O)NC3CC3)nc2Cl)c(F)c1` (stereo not shown) [Example 1.3.3, 6-chloro-N-cyclopropyl-5-(2-(1-(2-fluoro-4-methoxyphenyl)-3,4-dihydroimidazo[1,2-a:5,4-c′]dipyridin-2(1H)-yl)-2-oxoethoxy)picolinamide], for which the IC50 stood at 0.019 µM. This IC50 is about 12-fold lower than that of the molecule before.

As for `COCCCOc1cc(C2c3c(nc4cc(Cl)ccn34)CCN2C(=O)COc2ccc3ccccc3c2)ccc1OC` (stereo not shown) [Example 2.11.1, 1-(7-chloro-1-(4-methoxy-3-(3-methoxypropoxy)phenyl)-3,4-dihydroimidazo[1,2-a:5,4-c′]dipyridin-2(1H)-yi)-2-(naphthalen-2-yloxy)ethan-1-one], the IC50 was found to be 0.032 µM.

`CCc1cc(Br)ccc1OCC(=O)N1CCc2nc3cc(C(F)(F)F)ccn3c2C1c1ccc(OC)c(OC)c1` (stereo not shown) [Example 3.1.31, 2-(4-bromo-2-ethylphenoxy)-1-(1-(3,4-dimethoxyphenyl)-7-(trifluoromethyl)-3,4-dihydroimidazo[1,2-a:5,4-c′]dipyridin-2(1H)-yl)ethan-1-one] registered an IC50 of 0.043 µM. The IC50 values of the last two molecules are within 1.5-fold of each other.
